One experiment addresses T1, human CB2 receptors (Homo sapiens, UniProt P34972).
T1 construct: expressed in transfected cells; host or cells: CHO cells
Kind of experiment: functional cAMP assay, human CB2. Format: cell-based. How it is done:
(§1) CHO cells expressing human CB1 or CB2 receptors are seeded 17-24 hours prior to the experiment 50.000 cells per well in a black 96 well plate with flat clear bottom (Corning Costar #3904) in DMEM (Invitrogen No. 31331), 1×HT supplement, with 10% fetal calf serum and incubated at 5% CO2 and 37° C. in a humidified incubator. The growth medium was exchanged with Krebs Ringer Bicarbonate buffer with 1 mM IBMX and incubated at 30° C. for 30 min. Compounds were added to a final assay volume of 100 μl and incubated for 30 min at 30° C. Using the cAMP-Nano-TRF detection kit the assay (Roche Diagnostics) was stopped by the addition of 50 μl lysis reagent (Tris, NaCl, 1.5% Triton X100, 2.5% NP40, 10% NaN3) and 50 μl detection solutions (20 μM mAb Alexa700-cAMP 1:1, and 48 μM Ruthenium-2-AHA-cAMP) and shaken for 2 h at room temperature. The time-resolved energy transfer is measured by a TRF reader (Evotec Technologies GmbH), equipped with a ND:YAG laser as excitation source. The plate is measured twice with the excitation at 355 nm and at the emission with a delay of 100 ns and a gate of 100 ns, total exposure time 10 s at 730 (bandwidth 30 nm) or 645 nm (bandwidth 75 nm), respectively. The FRET signal is calculated as follows: FRET=T730-Alexa730-P(T645-B645) with P=Ru730-B730/Ru645-B645, where T730 is the test well measured at 730 nM, T645 is the test well measured at 645 nm, B730 and B645 are the buffer controls at 730 nm and 645 nm, respectively. cAMP content is determined from the function of a standard curve spanning from 10 μM to 0.13 nM cAMP.
(§2) EC50 values were determined using Activity Base analysis (ID Business Solution, Limited). The EC50 values for a wide range of cannabinoid agonists generated from this assay were in agreement with the values published in the scientific literature.

A further experiment addresses T2, human CB1 receptors (Homo sapiens, UniProt P21554).
T2 construct: expressed in transfected cells; host or cells: CHO cells
As to the kind of experiment: functional cAMP assay, human CB1. Type of experiment: cell-based. How it is done: as §1, §2

Setting [1] is: CHO cells expressing human CB2, cAMP, read-out: human CB2 EC50.
The mark [2] stands for this setting: CHO cells expressing human CB1, cAMP, read-out: human CB1 EC50.

Read-outs that look alike come from different tables or passages of the source.

T2 sequence (P21554 whole entry): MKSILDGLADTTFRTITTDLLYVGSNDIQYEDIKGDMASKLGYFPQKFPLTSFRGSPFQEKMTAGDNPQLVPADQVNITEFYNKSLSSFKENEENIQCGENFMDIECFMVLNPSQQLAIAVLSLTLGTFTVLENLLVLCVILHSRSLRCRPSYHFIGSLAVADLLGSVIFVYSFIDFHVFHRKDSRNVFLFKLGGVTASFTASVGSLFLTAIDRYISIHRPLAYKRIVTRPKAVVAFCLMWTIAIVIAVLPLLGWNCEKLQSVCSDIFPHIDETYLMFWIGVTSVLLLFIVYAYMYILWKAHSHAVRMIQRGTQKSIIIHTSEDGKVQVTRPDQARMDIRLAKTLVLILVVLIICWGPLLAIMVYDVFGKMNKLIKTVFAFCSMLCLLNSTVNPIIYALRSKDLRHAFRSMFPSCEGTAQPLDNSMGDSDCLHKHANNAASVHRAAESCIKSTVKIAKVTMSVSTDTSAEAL
T1 sequence (P34972 whole entry): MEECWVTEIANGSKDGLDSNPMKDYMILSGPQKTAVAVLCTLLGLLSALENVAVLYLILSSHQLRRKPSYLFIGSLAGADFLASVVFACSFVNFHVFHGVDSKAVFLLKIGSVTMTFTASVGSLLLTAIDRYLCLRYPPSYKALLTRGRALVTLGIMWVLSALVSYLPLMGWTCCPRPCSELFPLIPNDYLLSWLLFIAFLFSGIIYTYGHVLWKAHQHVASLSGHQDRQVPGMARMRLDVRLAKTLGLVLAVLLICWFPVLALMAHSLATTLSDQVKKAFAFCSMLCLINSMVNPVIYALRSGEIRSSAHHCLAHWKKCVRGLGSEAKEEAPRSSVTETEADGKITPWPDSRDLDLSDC

For the compound `CC(C)(C)c1nc(N2CC[C@H](O)C2)c2nnn(Cc3ccccc3C(F)(F)F)c2n1` [Example 142, (S)-1-[5-tert-Butyl-3-(2-trifluoromethyl-benzyl)-3H-[1,2,3]triazolo[4,5-d]pyrimidin-7-yl]-pyrrolidin-3-ol], the figures for the EC50 on human CB2 receptors (setting [1]) and at human CB1 receptors (setting [2]) were 0.2 nM and over 10000 nM, respectively.

`CC(C)(C)c1nc(N2CCC(F)(F)C2)c2nnn(Cc3cccnc3Cl)c2n1` [Example 97, 5-tert-Butyl-3-(2-chloro-pyridin-3-ylmethyl)-7-(3,3-difluoro-pyrrolidin-1-yl)-3H-[1,2,3]triazolo[4,5-c]pyrimidine]: the 50% effective concentration (EC50) at human CB2 receptors (setting [1]) amounted to 0.1 nM; on human CB1 receptors (setting [2]), 62.3 nM. For `CC(C)(C)c1nc(N2CCSC2)c2nnn(Cc3ccccc3Cl)c2n1` [Example 19, 5-tert-Butyl-3-(2-chloro-benzyl)-7-thiazolidin-3-yl-3H-[1,2,3]triazolo[4,5-d]pyrimidine] the same measures were 1.7 nM and 131 nM.

On to `CC(C)(C)c1nc(N2CCC(F)(F)C2)c2nnn(CC(=O)c3cccnc3)c2n1` [Example 117, 2-[5-tert-Butyl-7-(3,3-difluoro-pyrrolidin-1-yl)-[1,2,3]triazolo[4,5-d]pyrimidin-3-yl]-1-pyridin 3-yl-ethanone], for which the EC50 at human CB2 receptors (setting [1]) was 0.2 nM; on human CB1 receptors (setting [2]) it was over 10000 nM. On the same counts, the results for `CC(C)(C)c1nc(N2CCC(F)(F)C2)c2nnn(Cc3cccnc3)c2n1` [Example 74, 5-tert-Butyl-7-(3,3-difluoro-pyrrolidin-1-yl)-3-pyridin-3-ylmethyl-3H-[1,2,3]triazolo[4,5-d]pyrimidine] are 0.1 nM and 55.9 nM. For `CC(C)(C)c1nc(N2CCCCO2)c2nnn(Cc3ccccc3Cl)c2n1` [Example 39, 5-tert-Butyl-3-(2-chloro-benzyl)-7-[1,2]oxazinan-2-yl-3H-[1,2,3]triazolo[4,5-d]pyrimidine] the same measures were 7.9 nM and 1330 nM. As to `CC(C)(C)c1nc(N2CCC(F)(F)C2)c2nnn(CCc3ccc(Cl)cc3)c2n1` [Example 105, 5-tert-Butyl-3-[2-(4-chloro-phenyl)-ethyl]-7-(3,3-difluoro-pyrrolidin-1-yl)-3H-[1,2,3]triazolo[4,5-d]pyrimidine], the EC50 at human CB2 receptors (setting [1]) was 6.5 nM; at human CB1 receptors (setting [2]), over 10000 nM. With `Cc1nonc1Cn1nnc2c(N3CC[C@@](C)(O)C3)nc(C(C)(C)C)nc21` [Example 228-b, (R)-1-(5-tert-butyl-3-((4-methyl-1,2,5-oxadiazol-3-yl)methyl)-3H-[1,2,3]triazolo[4,5-d]pyrimidin-7-yl)-3-methylpyrrolidin-3-ol], the 50% effective concentration (EC50) at human CB2 receptors (setting [1]) was 3.3 nM; at human CB1 receptors (setting [2]) it was over 10000 nM. `CCN(C(C)=O)C1CCN(c2nc(C(C)(C)C)nc3c2nnn3Cc2ccccc2Cl)C1` (stereo not shown) [Example 196, N-{1-[5-tert-Butyl-3-(2-chloro-benzyl)-3H-[1,2,3]triazolo[4,5-d]pyrimidin-7-yl]-pyrrolidin-3-yl}-N-ethyl-acetamide]: the results for the concentration for a half-maximal effect (EC50) on human CB2 receptors (setting [1]) and on human CB1 receptors were 119 nM and over 10000 nM, respectively.

Regarding `CC(C)(C)c1nc(N2C[C@@H](O)[C@H](O)C2)c2nnn(Cc3ccccc3Cl)c2n1` (relative stereo) [Example 55, 1-[5-tert-Butyl-3-(2-chloro-benzyl)-3H-[1,2,3]triazolo[4,5-c]pyrimidin-7-yl]-pyrrolidine-3,4-trans-diol], the EC50 at human CB2 receptors (setting [1]) was 10.4 nM; at human CB1 receptors (setting [2]) it was over 10000 nM. On the same counts, the results for `CC(C)(C)c1nc(N2CCOCC2CO)c2nnn(Cc3ccccc3Cl)c2n1` (stereo not shown) [Example 48, {4-[5-tert-Butyl-3-(2-chloro-benzyl)-3H-[1,2,3]triazolo[4,5-d]pyrimidin-7-yl]-morpholin-3-yl}-methanol] are 8.3 nM and over 10000 nM. For `CC(C)(C)c1nc(N2CCSCC2)c2nnn(Cc3ccccc3Cl)c2n1` [Example 20, 5-tert-Butyl-3-(2-chloro-benzyl)-7-thiomorpholin-4-yl-3H-[1,2,3]triazolo[4,5-d]pyrimidine] the same measures were 1.7 nM and 346 nM.

`CC(C)(C)c1nc(N2CCC(F)(F)C2)c2nnn(C3CCS(=O)(=O)C3)c2n1` (stereo not shown) [Example 126, 5-tert-Butyl-7-(3,3-difluoro-pyrrolidin-1-yl)-3-(1,1-dioxo-tetrahydro-1λ^6-thiophen-3-yl)-3H-[1,2,3]triazolo[4,5-d]pyrimidine]: the EC50 at human CB2 receptors (setting [1]) is 0.3 nM; on human CB1 receptors (setting [2]), 496 nM.

In the case of `Cc1nonc1Cn1nnc2c(N3CC(F)(F)C(F)(F)C3)nc(C(C)(C)C)nc21` [Example 173, 5-tert-Butyl-3-(4-methyl-furazan-3-ylmethyl)-7-(3,3,4,4-tetrafluoro-pyrrolidin-1-yl)-3H-[1,2,3]triazolo[4,5-d]pyrimidine], the concentration for a half-maximal effect (EC50) on human CB2 receptors (setting [1]) was 0.3 nM; on human CB1 receptors (setting [2]), over 10000 nM. `CC(C)(C)c1nc(N2CC3(COC3)C2)c2nnn(Cc3ccccc3S(C)(=O)=O)c2n1` [Example 186, 5-tert-Butyl-3-(2-methanesulfonyl-benzyl)-7-(2-oxa-6-aza-spiro[3.3]hept-6-yl)-3H-[1,2,3]triazolo[4,5-d]pyrimidine]: the results for the concentration giving a half-maximal response (EC50) at human CB2 receptors (setting [1]) and on human CB1 receptors (setting [2]) were 0.3 nM and 137 nM, respectively. In the case of `CC(C)(C)c1nc(N2CC2)c2nnn(Cc3ccccc3Cl)c2n1` [Example 41, 7-Aziridin-1-yl-5-tert-butyl-3-(2-chloro-benzyl)-3H-[1,2,3]triazolo[4,5-d]pyrimidine], the EC50 was 36.5 nM on human CB2 receptors and 1220 nM at human CB1 receptors.

As for `CC(C)(C)c1nc(N2CCC(F)(F)C2)c2nnn(CCc3ccccn3)c2n1` [Example 113, 5-tert-Butyl-7-(3,3-difluoro-pyrrolidin-1-yl)-3-(2-pyridin-2-yl-ethyl)-3H-[1,2,3]triazolo[4,5-d]pyrimidine], the results for the concentration giving a half-maximal response (EC50) at human CB2 receptors (setting [1]) and on human CB1 receptors (setting [2]) were 0.2 nM and 201 nM, respectively.

With `CC(C)(C)c1nc(N2CCC23COC3)c2nnn(Cc3ccccc3Cl)c2n1` [Example 35, 5-tert-Butyl-3-(2-chloro-benzyl)-7-(6-oxa-1-aza-spiro[3.3]hept-1-yl)-3H-[1,2,3]triazolo[4,5-d]pyrimidine], the concentration for a half-maximal effect (EC50) on human CB2 receptors (setting [1]) is 3.6 nM; at human CB1 receptors (setting [2]), over 10000 nM. Regarding `CC(C)(C)c1nc(N2CCC(F)(F)C2)c2nnn(C3COC3)c2n1` [Example 91, 5-tert-Butyl-7-(3,3-difluoro-pyrrolidin-1-yl)-3-oxetan-3-yl-3H-[1,2,3]triazolo[4,5-d]pyrimidine], the EC50 at human CB2 receptors (setting [1]) is 0.3 nM. The same measure, in the same setting: the figure for `CC(C)(C)c1nc(N2C[C@@H](O)C(F)(F)C2)c2nnn(Cc3ccccc3Cl)c2n1` [Example 95, (R)-1-[5-tert-Butyl-3-(2-chloro-benzyl)-3H-[1,2,3]triazolo[4,5-d]pyrimidin-7-yl]-4,4-difluoro-pyrrolidin-3-ol] is 1.5 nM; for `CC(C)(C)c1nc(N2CCC(F)(F)C2)c2nnn(S(=O)(=O)c3ccccc3Cl)c2n1` [Example 107, 5-tert-Butyl-3-(2-chloro-benzenesulfonyl)-7-(3,3-difluoro-pyrrolidin-1-yl)-3H-[1,2,3]triazolo[4,5-d]pyrimidine] it is 284 nM; for `CC(C)(C)c1nc(N2CCC(F)(F)C2)c2nnn(C(=O)c3ccccc3Cl)c2n1` [Example 92, [5-tert-Butyl-7-(3,3-difluoro-pyrrolidin-1-yl)-[1,2,3]triazolo[4,5-d]pyrimidin-3-yl]-(2-chloro-phenyl)-methanone] it is 350 nM.

The record behind these values is patent publication US8741906B2 (priority 2011, dated 2014).
